Experimental data: patent US8859584B2, “TRPV1 antagonists” (AbbVie Inc., priority 2011, dated 2014)
Like-named read-outs stand apart in the source and are kept apart here.

Key:
human TRPV1 [1] = biological target: T1, human TRPV1 (Homo sapiens, UniProt Q8NER1); test: Capsaicin Activation Assay (FLIPR intracellular Ca2+, recombinant HEK293 cells); type: cell-based
T1 construct: expressed in transfected cells

human TRPV1 [2] = biological target: T1, human TRPV1; test: Acid Activation Assay (pH 5.0, FLIPR intracellular Ca2+, recombinant HEK293 cells); type: cell-based; settings: percentage of maximal pH 5.0-induced response remaining; HEK293 hTRPV1; max concentration 37.5 μM
Method in brief: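 HEK293 cells stably expressing recombinant hTRPV1 were loaded with calcium dye for 90-120 min at 25° C and pre-treated with compound for 3 min before a pH 5.0 (DPBS/MES) challenge. Peak FLIPR fluorescence over baseline is given as percentage of the maximal pH 5.0-induced response.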

[3] = recombinant HEK293 cells expressing hTRPV1, 50 nM capsaicin, read-out: human TRPV1 capsaicin IC50

T1 sequence (Q8NER1 whole entry): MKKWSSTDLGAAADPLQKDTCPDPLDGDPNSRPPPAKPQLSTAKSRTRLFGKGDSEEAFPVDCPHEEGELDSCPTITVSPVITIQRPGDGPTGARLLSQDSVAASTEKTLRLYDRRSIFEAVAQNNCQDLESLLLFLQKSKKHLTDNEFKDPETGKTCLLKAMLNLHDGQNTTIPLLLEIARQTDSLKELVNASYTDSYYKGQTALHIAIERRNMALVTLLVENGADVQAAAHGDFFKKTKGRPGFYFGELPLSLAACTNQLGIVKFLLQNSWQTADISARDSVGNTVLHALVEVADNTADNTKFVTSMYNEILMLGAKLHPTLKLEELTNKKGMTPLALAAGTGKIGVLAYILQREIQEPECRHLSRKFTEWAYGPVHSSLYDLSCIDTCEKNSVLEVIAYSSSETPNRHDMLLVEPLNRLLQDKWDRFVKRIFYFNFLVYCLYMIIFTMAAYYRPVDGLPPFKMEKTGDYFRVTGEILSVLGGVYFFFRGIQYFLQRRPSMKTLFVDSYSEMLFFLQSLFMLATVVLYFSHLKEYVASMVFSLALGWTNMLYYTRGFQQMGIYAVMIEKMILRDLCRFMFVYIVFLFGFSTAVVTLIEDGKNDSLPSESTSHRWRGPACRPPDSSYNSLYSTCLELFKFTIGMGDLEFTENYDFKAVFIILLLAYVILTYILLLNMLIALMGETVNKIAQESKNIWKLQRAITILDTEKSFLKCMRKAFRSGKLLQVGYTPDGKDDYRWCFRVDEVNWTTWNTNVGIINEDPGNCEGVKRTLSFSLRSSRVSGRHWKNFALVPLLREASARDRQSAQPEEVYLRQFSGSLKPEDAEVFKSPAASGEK

Row | IC50 (human TRPV1 [1]; [3]) [nM] | human TRPV1 H+ (max % remain) (human TRPV1 [2]) [%] | IC50 (human TRPV1 [1]) [nM] | Compound
1 | 130 | 45 | – | O=C(Nc1cccc2c1CC(O)C2)NC1CC(c2ccc(Cl)cc2)Oc2ccccc21 (stereo not shown) [Example 117, 1-[2-(4-chlorophenyl)-3,4-dihydro-2H-chromen-4-yl]-3-(2-hydroxy-2,3-dihydro-1H-inden-4-yl)urea]
2 | 760 | 2 | – | CC1(C)C[C@@H](NC(=O)Nc2ccc(F)c3c2C[C@H](O)C3)c2ccc(F)c(F)c2O1 [Example 153, 1-[(4R)-7,8-difluoro-2,2-dimethyl-3,4-dihydro-2H-chromen-4-yl]-3-[(2S)-7-fluoro-2-hydroxy-2,3-dihydro-1H-inden-4-yl]urea]
3 | 89 | 74 | – | O=C(Nc1cccc2c1C[C@H](O)C2)N[C@@H]1CCOc2cc(C(F)(F)F)ccc21 [Example 21, 1-[(2R)-2-hydroxy-2,3-dihydro-1H-inden-4-yl]-3-[(4R)-7-(trifluoromethyl)-3,4-dihydro-2H-chromen-4-yl]urea]
4 | 400 | 47 | – | CC1(C)C[C@@H](NC(=O)Nc2ccc(F)c3c2C[C@@H](O)C3)c2ccc(F)c(F)c2O1 [Example 171, 1-[(4R)-7,8-difluoro-2,2-dimethyl-3,4-dihydro-2H-chromen-4-yl]-3-[(2R)-7-fluoro-2-hydroxy-2,3-dihydro-1H-inden-4-yl]urea]
5 | 970 | 79 | – | COCC1(COC)C[C@@H](NC(=O)Nc2cccc3c2C[C@H](O)C3)c2cc(F)ccc2O1 [Example 68, 1-[(4R)-6-fluoro-2,2-bis(methoxymethyl)-3,4-dihydro-2H-chromen-4-yl]-3-[(2R)-2-hydroxy-2,3-dihydro-1H-inden-4-yl]urea]
6 | 790 | 27 | – | CC1(C)C[C@@H](NC(=O)Nc2cccc3c2C[C@@H](O)C3)c2cc(F)ccc2O1 [Example 83, 1-[(4R)-6-fluoro-2,2-dimethyl-3,4-dihydro-2H-chromen-4-yl]-3-[(2S)-2-hydroxy-2,3-dihydro-1H-inden-4-yl]urea]
7 | 2800 | 7 | – | CC1(C)C[C@@H](NC(=O)Nc2ccc(F)c3c2C[C@H](O)C3)c2cc(F)ccc2O1 [Example 146, 1-[(4R)-6-fluoro-2,2-dimethyl-3,4-dihydro-2H-chromen-4-yl]-3-[(2S)-7-fluoro-2-hydroxy-2,3-dihydro-1H-inden-4-yl]urea]
8 | 1100 | 94 | – | O=C(Nc1cccc2c1CC(O)C2)NC1c2ccccc2OCC1c1ccc(Cl)cc1 (stereo not shown) [Example 115, 1-[3-(4-chlorophenyl)-3,4-dihydro-2H-chromen-4-yl]-3-(2-hydroxy-2,3-dihydro-1H-inden-4-yl)urea]
9 | 360 | 53 | – | O=C(Nc1cccc2c1C[C@H](O)C2)N[C@@H]1CC(CF)(CF)Oc2cc(F)ccc21 [Example 129, 1-[(4R)-7-fluoro-2,2-bis(fluoromethyl)-3,4-dihydro-2H-chromen-4-yl]-3-[(2R)-2-hydroxy-2,3-dihydro-1H-inden-4-yl]urea]
10 | 35 | 50 | – | O=C(Nc1cccc2c1C[C@H](O)C2)N[C@@H]1CC2(CCC2)Oc2ccc(F)cc21 [Example 8, 1-[(4R)-6-fluoro-3,4-dihydrospiro[chromene-2,1′-cyclobutan]-4-yl]-3-[(2R)-2-hydroxy-2,3-dihydro-1H-inden-4-yl]urea]
11 | 41 | 30 | – | C[C@]1(CF)C[C@@H](NC(=O)Nc2c(F)ccc3c2CC(O)C3)c2ccc(Cl)cc2O1 (stereo partly drawn) [Example 25, 1-[(2R,4R)-7-chloro-2-(fluoromethyl)-2-methyl-3,4-dihydro-2H-chromen-4-yl]-3-(5-fluoro-2-hydroxy-2,3-dihydro-1H-inden-4-yl)urea]
12 | 240 | 59 | – | O=C(Nc1cccc2c1CC(O)C2)NC1CC(c2cccc(Cl)c2)Oc2ccccc21 (stereo not shown) [Example 110, 1-[2-(3-chlorophenyl)-3,4-dihydro-2H-chromen-4-yl]-3-(2-hydroxy-2,3-dihydro-1H-inden-4-yl)urea]
13 | 4800 | 90 | – | O=C(Nc1cccc2c1C[C@H](O)C2)N[C@@H]1CCOc2c(F)cc(F)cc21 [Example 64, 1-[(4R)-6,8-difluoro-3,4-dihydro-2H-chromen-4-yl]-3-[(2R)-2-hydroxy-2,3-dihydro-1H-inden-4-yl]urea]
14 | 6600 | 6 | – | O=C(Nc1ccc(F)c2c1C[C@H](O)C2)N[C@@H]1CC(CF)(CF)Oc2ccccc21 [Example 151, 1-[(4R)-2,2-bis(fluoromethyl)-3,4-dihydro-2H-chromen-4-yl]-3-[(2S)-7-fluoro-2-hydroxy-2,3-dihydro-1H-inden-4-yl]urea]
15 | 82 | 3 | – | CC1(C)C[C@@H](NC(=O)Nc2ccc(F)c3c2C[C@H](O)C3)c2cccc(OC(F)(F)F)c2O1 [Example 154, 1-[(4R)-2,2-dimethyl-8-(trifluoromethoxy)-3,4-dihydro-2H-chromen-4-yl]-3-[(2S)-7-fluoro-2-hydroxy-2,3-dihydro-1H-inden-4-yl]urea]
16 | 710 | 15 | – | O=C(Nc1cccc2c1C[C@@H](O)C2)N[C@@H]1CC(CF)(CF)Oc2c(F)cc(F)cc21 [Example 79, 1-[(4R)-6,8-difluoro-2,2-bis(fluoromethyl)-3,4-dihydro-2H-chromen-4-yl]-3-[(2S)-2-hydroxy-2,3-dihydro-1H-inden-4-yl]urea]
17 | 18 | 70 | – | CC(C)(C)c1cccc2c1OCC[C@H]2NC(=O)Nc1cccc2c1C[C@H](O)C2 [Example 51, 1-[(4R)-8-tert-butyl-3,4-dihydro-2H-chromen-4-yl]-3-[(2R)-2-hydroxy-2,3-dihydro-1H-inden-4-yl]urea]
18 | 65 | 43 | – | CC1(C)C[C@@H](NC(=O)Nc2ccc(F)c3c2C[C@@H](O)C3)c2ccc(F)c(Cl)c2O1 [Example 166, 1-[(4R)-8-chloro-7-fluoro-2,2-dimethyl-3,4-dihydro-2H-chromen-4-yl]-3-[(2R)-7-fluoro-2-hydroxy-2,3-dihydro-1H-inden-4-yl]urea]
19 | 570 | 63 | – | O=C(Nc1cccc2c1C[C@H](O)C2)N[C@@H]1CC(CF)(CF)Oc2ccc(F)cc21 [Example 57, 1-[(4R)-6-fluoro-2,2-bis(fluoromethyl)-3,4-dihydro-2H-chromen-4-yl]-3-[(2R)-2-hydroxy-2,3-dihydro-1H-inden-4-yl]urea]
20 | – | 36 | 220 | O=C(Nc1ccc(F)c2c1C[C@@H](O)C2)N[C@@H]1CC(CF)(CF)Oc2cc(Cl)ccc21 [Example 133, 1-[(4R)-7-chloro-2,2-bis(fluoromethyl)-3,4-dihydro-2H-chromen-4-yl]-3-[(2R)-7-fluoro-2-hydroxy-2,3-dihydro-1H-inden-4-yl]urea]
21 | 13 | 73 | – | CCC1(CC)C[C@@H](NC(=O)Nc2cccc3c2C[C@H](O)C3)c2ccc(F)cc2O1 [Example 52, 1-[(4R)-2,2-diethyl-7-fluoro-3,4-dihydro-2H-chromen-4-yl]-3-[(2R)-2-hydroxy-2,3-dihydro-1H-inden-4-yl]urea]
22 | 26 | 58 | – | O=C(Nc1cccc2c1C[C@H](O)C2)N[C@@H]1CCOc2c1cccc2C(F)(F)F [Example 18, 1-[(2R)-2-hydroxy-2,3-dihydro-1H-inden-4-yl]-3-[(4R)-8-(trifluoromethyl)-3,4-dihydro-2H-chromen-4-yl]urea]
23 | 24 | 12 | – | CC1(C)C[C@@H](NC(=O)Nc2cccc3c2C[C@@H](O)C3)c2ccc(Cl)cc2O1 [Example 85, 1-[(4R)-7-chloro-2,2-dimethyl-3,4-dihydro-2H-chromen-4-yl]-3-[(2S)-2-hydroxy-2,3-dihydro-1H-inden-4-yl]urea]
24 | 1800 | 59 | – | CC1(C)C[C@@H](NC(=O)Nc2ccc(F)c3c2C[C@@H](O)C3)c2cccc(F)c2O1 [Example 157, 1-[(4R)-8-fluoro-2,2-dimethyl-3,4-dihydro-2H-chromen-4-yl]-3-[(2R)-7-fluoro-2-hydroxy-2,3-dihydro-1H-inden-4-yl]urea]
25 | 17 | 4 | – | O=C(Nc1cccc2c1C[C@@H](O)C2)N[C@@H]1CCOc2cc(OC(F)(F)F)ccc21 [Example 37, 1-[(2S)-2-hydroxy-2,3-dihydro-1H-inden-4-yl]-3-[(4R)-7-(trifluoromethoxy)-3,4-dihydro-2H-chromen-4-yl]urea]
26 | 220 | 99 | – | O=C(Nc1cccc2c1C[C@H](O)C2)N[C@@H]1CC(CF)(CF)Oc2c(F)cccc21 [Example 70, 1-[(4R)-8-fluoro-2,2-bis(fluoromethyl)-3,4-dihydro-2H-chromen-4-yl]-3-[(2R)-2-hydroxy-2,3-dihydro-1H-inden-4-yl]urea]
27 | 430 | 72 | – | O=C(Nc1cccc2c1CC(O)C2)NC1CC(c2ccc(F)cc2)Oc2ccccc21 (stereo not shown) [Example 119, 1-[2-(4-fluorophenyl)-3,4-dihydro-2H-chromen-4-yl]-3-(2-hydroxy-2,3-dihydro-1H-inden-4-yl)urea]
28 | 560 | 91 | – | O=C(Nc1cccc2c1C[C@H](O)C2)N[C@H]1COc2ccc(Cl)cc2C1 [Example 89, 1-[(3R)-6-chloro-3,4-dihydro-2H-chromen-3-yl]-3-[(2R)-2-hydroxy-2,3-dihydro-1H-inden-4-yl]urea]

Row | Compound | IC50 (human TRPV1 [1]; [3]) [nM] | human TRPV1 H+ (max % remain) (human TRPV1 [2]) [%] | IC50 (human TRPV1 [1]) [nM]
29 | CC(=O)Nc1nc2c(Oc3cc(-c4ccc(C(F)(F)F)cc4)ncn3)cccc2s1 [A, reference compound] | 20 | 10 | –
